This note sets out measurements from publication PMC10690365, “Improved catalytic performance and molecular insight for lipoxygenase from Enterovibrio norvegicus via directed evolution” (Frontiers in Bioengineering and Biotechnology, 2023).

The target of test [1] is T1, EnLOX (wild-type, WT); lipoxygenase from Enterovibrio norvegicus (Enterovibrio norvegicus, UniProt A0A1I5T4S6).
T1 construct: primer-encoded N-terminus MHRKKT
T1 sequence (A0A1I5T4S6 1-726): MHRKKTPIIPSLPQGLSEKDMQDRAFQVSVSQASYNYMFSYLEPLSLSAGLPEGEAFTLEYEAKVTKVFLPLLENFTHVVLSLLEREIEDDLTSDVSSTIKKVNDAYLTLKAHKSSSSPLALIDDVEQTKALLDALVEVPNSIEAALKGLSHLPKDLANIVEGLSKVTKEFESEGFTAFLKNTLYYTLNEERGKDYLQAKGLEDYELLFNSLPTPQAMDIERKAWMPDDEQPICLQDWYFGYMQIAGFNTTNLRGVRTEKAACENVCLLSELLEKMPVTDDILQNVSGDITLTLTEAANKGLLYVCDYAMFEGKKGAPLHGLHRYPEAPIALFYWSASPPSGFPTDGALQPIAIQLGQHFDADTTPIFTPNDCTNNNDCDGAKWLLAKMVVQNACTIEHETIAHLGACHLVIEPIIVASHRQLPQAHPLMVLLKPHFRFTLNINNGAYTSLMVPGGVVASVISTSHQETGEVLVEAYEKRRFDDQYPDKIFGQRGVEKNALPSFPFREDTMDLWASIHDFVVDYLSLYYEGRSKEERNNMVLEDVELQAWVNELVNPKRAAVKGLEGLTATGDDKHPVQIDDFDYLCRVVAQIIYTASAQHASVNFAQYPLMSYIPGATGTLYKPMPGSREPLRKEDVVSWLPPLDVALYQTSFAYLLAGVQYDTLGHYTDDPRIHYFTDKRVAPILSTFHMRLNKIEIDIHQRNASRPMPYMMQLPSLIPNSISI
Nature of the test: absorbance at […] nm (hydroperoxide formation), Michaelis-Menten fit. Type of test: biochemical. The conditions noted are these: 20 mM Tris-HCl pH 8.0, 50 °C; substrate range printed as 10 to 300 mM (unit doubtful against the Km).

In test [2] the target is T2, EnLOX (wild-type, WT); lipoxygenase from Enterovibrio norvegicus (Enterovibrio norvegicus, UniProt A0A1I5T4S6, D95E/T99A/A121H/S142N/N444W/S613G, form not given).
T2 construct: primer-encoded N-terminus MHRKKT
T2 sequence (A0A1I5T4S6 1-726 D95E/T99A/A121H/S142N/N444W/S613G): T1 sequence (A0A1I5T4S6 1-726) with D95E, T99A, A121H, S142N, N444W, S613G
The test is described as above. Type of test: biochemical. As to conditions: 20 mM Tris-HCl pH 8.0, 50 °C; substrate range printed as 10 to 300 mM (unit doubtful against the Km); mutant EAHNWG (F-12E); printed nucleotide changes do not fully match the amino acid positions.

Positions count from the first letter of the chain named.

As usually defined, the Km is the substrate concentration at which the rate is half of its maximum. With `CCCCC/C=C\C/C=C\CCCCCCCC(=O)O` [linoleic acid], the Km in test [1] came out at 3.49 ± 0.21 µM; in test [2], 2.36 ± 0.14 µM.
